Test results as given in paper PMC8151276, “An Integrated Approach toward NanoBRET Tracers for Analysis of GPCR Ligand Engagement” (Molecules, 2021).

Target: T1, HTR2B (Homo sapiens, UniProt P41595)
T1 construct: purchased Promega (in-house HiBiT-GPCR construct library, NanoBRET)
Experiment: NanoBRET screen HiBiT-HTR2B in HEK293
Type: binding
Procedure: Each tracer candidate was screened across the entire library of HiBiT-GPCR constructs using NanoBRET as the detection modality. As depicted in Figure 4A, the specificity of interactions was evaluated through decrease in BRET due to competitive displacement of a bound tracer by excess parental compound. Each tracer was analyzed for binding to each HiBiT-GPCR fusion in the absence and in the presence of competing parental compound. Briefly, HEK293 cells were transfected with HiBiT-GPCR constructs diluted into promoterless DNA to reduce expression and maximize translocation to the cell surface. Each tracer candidate was then screened at concentrations of 1 μM and 0.1 μM across cells expressing these fusions. Cells were treated for 1.5 h with tracer either alone or in the presence of 20 μM competing parental compound (i.e., control). BRET was measured upon addition of purified LgBiT and subsequent complementation with HiBiT genetically fused to a GPCR. The specificity of interactions was assessed through a decrease in BRET signal due to competitive displacement of the bound tracer. To further gauge the robustness of these interactions, the fold response over the control (i.e., BRETtracer/BRETcontrol) was calculated. We chose a 1.5-fold response, which translates to ≥7-fold signal over noise as the minimal threshold required to score an interaction as positive.
HiBiT-GPCR DNA constructs were diluted in 10 mM Tris pH 8 to a final concentration of 0.01 μg/μL, arrayed in 96-well plates and stored at −20 °C. For transfection, HEK293 cells were suspended in Opti-MEM (without phenol red) supplemented with 2% fetal bovine serum (Seradigm) and 100 units/mL penicillin–streptomycin (Gibco) at a final concentration of 220,000 cells/mL and dispensed into white 96-well plates at 90 μL/well. Subsequent transfections and screens were carried using an Agilent Bravo Automated Liquid Handling Platform. First, the 96-well HiBiT DNA arrays were diluted 25-fold in Opti-MEM (without serum or phenol red) to a final concentration of 0.0004 μg/μL and 20 μL of the diluted DNAs were transferred into new 96-well plates. Next, promoterless carrier DNA (1 μg/μL) was diluted 25-fold (0.04 μg/μL) and then dispensed into the diluted arrays at 20 μL/well. Following brief mixing, Viafect transfection reagent (Promega) diluted 16-fold into Opti-MEM was dispensed into the plates at 40 μL/well. After mixing by pipetting, plates were incubated for 10 min on the pipetting station deck. The DNA-transfection reagent complexes were then added to plates containing cells. To facilitate the screen, 10 μL of DNA-transfection reagent complexes were added in duplicates to the top 4 and bottom 4 rows, resulting in two identical 48-well arrays per plate. Plates with transfected cells were incubated for 18–20 h at 37 °C/5% CO2. A screen of each tracer across the entire library using two different concentrations requires duplicate plates of transfected cells. Depending on the number of tracers being screened, transfections can be scaled up using the same ratios. The next day, for each tracer, four 20× screening solutions in tracer dilution buffer (Promega) were prepared: two duplicates at final concentration of 20 μM and two duplicates at a final concentration of 2 μM. […] The four resulting solutions were diluted 4-fold in Opti-MEM without serum or phenol red to generate 5× solutions (5 µM and 0.5 µM tracer +/− 100 μM competing compound). To screen the library, a BioTek MultiFlo FX liquid dispenser was used to dispense 22.5 µL of tracer solution to the top 4 rows and 22.5 µL tracer + competing compound solution to the 4 bottom rows. Plates were briefly mixed on an orbital shaker and incubated for 1.5 h at room temperature. […] Plates were briefly mixed on an orbital shaker and incubated for 15 min to allow complementation.

T1 sequence (P41595 whole entry): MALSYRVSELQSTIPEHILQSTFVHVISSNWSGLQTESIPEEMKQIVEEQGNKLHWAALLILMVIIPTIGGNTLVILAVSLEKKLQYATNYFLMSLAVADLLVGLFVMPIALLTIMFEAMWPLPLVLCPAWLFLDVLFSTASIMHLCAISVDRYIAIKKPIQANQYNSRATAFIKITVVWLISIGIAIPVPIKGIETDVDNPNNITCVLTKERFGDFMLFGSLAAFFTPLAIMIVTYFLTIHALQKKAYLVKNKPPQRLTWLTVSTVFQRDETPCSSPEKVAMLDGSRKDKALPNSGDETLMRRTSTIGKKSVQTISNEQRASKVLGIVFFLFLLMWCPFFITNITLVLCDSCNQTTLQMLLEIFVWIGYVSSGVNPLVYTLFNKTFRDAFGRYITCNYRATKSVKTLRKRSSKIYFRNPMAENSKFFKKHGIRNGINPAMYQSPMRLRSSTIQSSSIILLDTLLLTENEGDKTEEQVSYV

| SMILES | NanoBRET Fold Response (HTR2B, tracer 0.1μM) | NanoBRET Fold Response (HTR2B, tracer 1μM) | further results |
| --- | --- | --- | --- |
| Cc1nc2n(c(=O)c1CCN1CCC(c3noc4cc(F)ccc34)CC1)CCCC2OC(=O)NCCOCCOCCOCCOCCNC(=O)CCc1ccc2n1[B-](F)(F)[N+]1=C(c3ccc[nH]3)C=CC1=C2 (centres unmarked) [Risperidone-2-NB590] | 1.03 | 1.32 | – |
| CCOC(=O)c1cc(C#N)c(N2CCC(C(=O)NS(=O)(=O)Cc3ccccc3/C=C/C(=O)NCCNC(=O)CCc3ccc4n3[B-](F)(F)[N+]3=C(c5ccc[nH]5)C=CC3=C4)CC2)nc1C [AZD1283-1-NB590] | – | – | NanoBRET Fold Response (HTR2B, 0.1μM): 1.31; NanoBRET Fold Response (HTR2B, 1μM): 1.15 |
| Cc1cc2c(s1)Nc1ccccc1N=C2N1CCN(CCCNC(=O)CCOCCOCCOCCOCCNC(=O)CCc2ccc3n2[B-](F)(F)[N+]2=C(c4ccc[nH]4)C=CC2=C3)CC1 [Olanzapine-a-2-NB590] | 1.12 | 1.36 | – |
| COc1ccccc1N1CCN(CCCCN2C(=O)c3ccc(CNC(=O)CCOCCNC(=O)c4ccc(CNC(=O)CCc5ccc6n5[B-](F)(F)[N+]5=C(c7ccc[nH]7)C=CC5=C6)cc4)cc3C2=O)CC1 [NAN-190-3-NB590] | 0.92 | 0.80 | – |
| CC(C)N(CC[C@H](c1ccccc1)c1cc(CCNC(=O)CCOCCOCCOCCOCCNC(=O)CCc2ccc3n2[B-](F)(F)[N+]2=C(c4ccc[nH]4)C=CC2=C3)ccc1O)C(C)C [Tolterodine-2-NB590] | 0.68 | 0.81 | – |
| CN(C)CCC=C1c2ccccc2CCc2ccc(C(=O)NCCNC(=O)CCOCCOCCOCCOCCNC(=O)CCc3ccc4n3[B-](F)(F)[N+]3=C(c5ccc[nH]5)C=CC3=C4)cc21 [Amitriptyline-b-2-NB590] | – | – | NanoBRET Fold Response (tracer at 0.1μM, listed as amitriptyline-b-2-NB590): 1.05; NanoBRET Fold Response (tracer at 1μM, listed as amitriptyline-b-2-NB590): 0.74 |
| O=C(CCOCCOCCOCCOCCNC(=O)CCc1ccc2n1[B-](F)(F)[N+]1=C(c3ccc[nH]3)C=CC1=C2)NCCCN1CCN(C2=Nc3ccccc3Oc3ccc(Cl)cc32)CC1 [Loxapine-a-2-NB590] | 1.04 | 1.25 | – |
| CN(C)CCC=C1c2ccccc2CCc2ccc(C(=O)NCCNC(=O)CCOCCOCCOCCOCCNC(=O)CCc3ccc4n3[B-](F)(F)[N+]3=C(c5ccc[nH]5)C=CC3=C4)cc21 [Amitriptyline-a-2-NB590] | – | – | NanoBRET Fold Response (tracer at 0.1μM): 0.98; NanoBRET Fold Response (tracer at 1μM): 1.09 |
| O=C(CCc1ccc2n1[B-](F)(F)[N+]1=C(c3ccc[nH]3)C=CC1=C2)NCCOCCOCCNC(=O)OCCOCCN1CCN(C2=Nc3ccccc3Sc3ccccc32)CC1 [Quetiapine-a-2-NB590] | 1.51 | 1.14 | – |
| COc1ccccc1N1CCN(CCCCN2C(=O)c3ccc(CNC(=O)CCOCCOCCOCCOCCNC(=O)CCc4ccc5n4[B-](F)(F)[N+]4=C(c6ccc[nH]6)C=CC4=C5)cc3C2=O)CC1 [NAN-190-2-NB590] | 0.92 | – | – |
| N#CN/C(=N\CCNC(=O)c1ccc(N)cc1)NCCCOc1cccc(CN2CCCCC2)c1 [Aminopotentidine (unmodified)] | – | – | NanoBRET Fold Response (HTR2B, other tracers/Aminopotentidine (unmodified), 0.1μM): 1.03; NanoBRET Fold Response (HTR2B, other tracers/Aminopotentidine (unmodified), 1μM): 0.97 |
| COc1ccc2[nH]c(-c3ccc(CNC(=O)CCOCCOCCOCCOCCNC(=O)CCc4ccc5n4[B-](F)(F)[N+]4=C(c6ccc[nH]6)C=CC4=C5)cc3)c(CCNC(C)=O)c2n1 [AzomelatoninICO9-2-NB590] | – | – | NanoBRET Fold Response (0.1μM tracer): 0.81; NanoBRET Fold Response (1μM tracer): 1.08 |
| O=C(CCOCCOCCOCCOCCNC(=O)CCc1ccc2n1[B-](F)(F)[N+]1=C(c3ccc[nH]3)C=CC1=C2)NCCCN1CCN(C2=Nc3cc(Cl)ccc3Nc3ccccc32)CC1 [Clozapine-a-2-NB590] | – | – | NanoBRET Fold Response (HTR2B, 0.1μM tracer): 1.08; NanoBRET Fold Response (HTR2B, 1μM tracer): 1.14 |
| CCCn1c(=O)c2[nH]c(-c3ccc(OCC(=O)NCCNC(=O)CCOCCNC(=O)c4ccc(CNC(=O)CCc5ccc6n5[B-](F)(F)[N+]5=C(c7ccc[nH]7)C=CC5=C6)cc4)cc3)nc2n(CCC)c1=O [XAC-3-NB590] | 1.29 | 0.78 | – |
| O=C(CCc1ccc2n1[B-](F)(F)[N+]1=C(c3ccc[nH]3)C=CC1=C2)NCc1ccc(C(=O)NCCOCCOCCNCC(O)COc2cccc3ccccc23)cc1 (centres unmarked) [Propranolol-3-NB590] | – | – | NanoBRET Fold Response (HTR2B, 0.1μM): 1.13; NanoBRET Fold Response (HTR2B, 1μM): 1.00 |
| O=C(CCc1ccc2n1[B-](F)(F)[N+]1=C(c3ccc[nH]3)C=CC1=C2)NCc1ccc(C(=O)NCCOCCC(=O)N[C@@H]2CC[C@@]3(O)[C@H]4Cc5ccc(O)c6c5[C@@]3(CCN4CC3CC3)[C@H]2O6)cc1 [Naltrexone-3-NB590] | 1.13 | 0.98 | – |
| CN(CCC=C1c2ccccc2CCc2ccccc21)C(=O)CCOCCOCCOCCOCCNC(=O)CCc1ccc2n1[B-](F)(F)[N+]1=C(c3ccc[nH]3)C=CC1=C2 [Amitriptyline-e-2-NB590] | – | – | NanoBRET Fold Response (tracer at 1μM): 1.02 |
| N#CN=C(NCCCOc1cccc(CN2CCCCC2)c1)NCCNC(=O)CCOCCOCCOCCOCCNC(=O)CCc1ccc2n1[B-](F)(F)[N+]1=C(c3ccc[nH]3)C=CC1=C2 [Aminopotentidine-2-NB590] | 0.90 | 0.91 | – |
| COc1ccc2c(n1)c(CCNC(C)=O)cn2CCNC(=O)CCc1ccc2n1[B-](F)(F)[N+]1=C(c3ccc[nH]3)C=CC1=C2 [Azamelatonin-1-NB590] | – | – | NanoBRET Fold Response (0.1μM tracer): 0.98; NanoBRET Fold Response (1μM tracer): 0.98 |
| CC(C)N(CC[C@H](c1ccccc1)c1cc(CCNC(=O)c2ccc(CNC(=O)CCc3ccc4n3[B-](F)(F)[N+]3=C(c5ccc[nH]5)C=CC3=C4)cc2)ccc1O)C(C)C [Tolterodine-BZ-NB590] | 0.83 | 1.07 | – |
